What was measured:
Erysiphe graminis = Erysiphe graminis (protective action) on wheat seedlings; assay type: in vivo; settings: Blumeria graminis, 168 h, 160 ppm spray, wheat cv. Lita, evaluated 7 days after infection, read-out: action (leaf area covered in Erysiphe graminis as a percentage compared with the infected control)
Description: Erysiphe graminis (Protective Action)
30-40 wheat seedlings cv. “Lita” in the 1-leaf stage (distributed to two pots of ø7 cm) are sprayed thoroughly with a spray mixture prepared with a wettable powder of the active substance (with 160 ppm of active ingredient) and then cultured further in the greenhouse. One day after the treatment, the plants are dusted with conidia of Erysiphe graminis. The test is evaluated 7 days after the infection by determining the size of the leaf area covered in Erysiphe graminis as a percentage compared with the infected control.
Untreated, but infected control plants show a level of infection with Erysiphe of 100%.

Puccinia coronata = Puccinia coronata (curative action) on oat seedlings; assay type: in vivo; settings: 160 ppm spray, oat cv. Selma, evaluated 9-10 days after infection, read-out: action (leaf area infected with Puccinia coronata as a percentage compared with the infected, untreated control)
Description: Puccinia coronata (Curative Action)
30-40 oat seedlings cv. “Selma” (distributed to 2 pots of ø7 cm) are infected with Puccinia coronata by spraying with an aqueous spore suspension (approx. 150,000 uredospores/ml). The test plants are subsequently incubated for 24 hours at 20-24° C. and under dew-point conditions. The oat seedlings are then sprayed thoroughly from all sides with a spray mixture prepared with a wettable powder of the active substance (with 160 ppm of active ingredient). They are cultured further in a controlled-environment cabinet at 19° C. and with a photoperiod of 14 hours. The test is evaluated 9-10 days after infection by determining the leaf area infected with Puccinia coronata as a percentage compared with the infected, untreated control.

Alternaria brassicae = Alternaria brassicae (protective action) on cabbage seedlings; assay type: in vivo; settings: 50 ppm spray, cabbage cv. Vorbote, evaluated 2-5 days after infection, read-out: action (leaf area infected with Alternaria brassicae as a percentage compared with the infected, untreated control)
Description: Alternaria brassicae (Protective Action)
4 cabbage seedlings, cv. “Vorbote”, in the 6-leaf stage, distributed to 2 pots, are sprayed thoroughly with a spray mixture prepared with a wettable powder of the active substance (with 50 ppm of active ingredient) and subsequently cultured further in a controlled-environment cabinet at 19° C. and with 16 hours illumination per day. Two days after the treatment, the plants are infected by spraying with an aqueous conidia suspension (approx. 30,000 conidia/ml). The cabbage plants are then incubated at 24-26° C., under dew-point conditions and with a photoperiod of 16 hours. The test is evaluated 2-5 days after the infection by determining the leaf area infected with Alternaria brassicae as a percentage compared with the infected, untreated control.

Venturia inaequalis = Venturia inaequalis (curative action) on apple seedlings; assay type: in vivo; settings: 50 ppm spray, apple cv. Golden Delicious, evaluated 9-10 days after treatment, read-out: action (leaf area covered in Venturia inaequalis as a percentage compared with the infected control)
Description: Venturia inaequalis (Curative Action)
Two apple seedlings cv. “Golden Delicious” are sprayed with a conidia suspension of Venturia inaequalis and subsequently incubated at 18° C. and under dew-point conditions. After 24 hours, the plants are sprayed thoroughly from all sides with a spray mixture prepared with a wettable powder of the active substance (with 50 ppm of active ingredient). The treated apple seedlings are subsequently cultured further in the greenhouse. 9-10 days after the treatment, the test is evaluated by determining the leaf area covered in Venturia inaequalis as a percentage compared with the infected control.

Cercospora arachidicola = experiment: Action against Cercospora arachidicola on peanut plants (curative action); assay type: in vivo; settings: Mycosphaerella arachidis, 288 h, 160 ppm spray, peanut cv. Tamnut, evaluated 12 days after treatment, read-out: action (leaf area infected with Cercospora arachidicola as a percentage compared with the infected control)
Description: Action Against Cercospora arachidicola on Peanut Plants (Curative Action)
Two peanut plants cv. “Tamnut” in the 4-leaf stage are sprayed with a conidia suspension of Cercospora arachidicola (approx. 200,000 conidia/ml) and subsequently incubated at 25-26° C. and under dew-point conditions. After two days, the plants are sprayed thoroughly from all sides with a spray mixture prepared with a wettable powder of the active substance (with 160 ppm of active ingredient). The treated plants are subsequently incubated in a controlled-environment cabinet under the following conditions: 25-27° C. and 80% atmospheric humidity during the day, 20° C. and dew-point conditions during the night; the photoperiod in each case is 16 hours. 12 days after the treatment, the test is evaluated by determining the leaf area infected with Cercospora arachidicola as a percentage compared with the infected control.

Plasmopara viticola = Plasmopara viticola (protective action) on grapevine seedlings; assay type: in vivo; settings: 144 h, 160 ppm spray, grapevine cv. Riesling x Sylvaner, day 6 after infection, read-out: action (leaf area infected with Plasmopara viticola as a percentage compared with the infected, untreated control)
Description: Plasmopara viticola (Protective Action)
2 grapevine seedlings cv. Riesling×Sylvaner, each in the 4-5 leaf stage, are sprayed thoroughly from all sides with a spray mixture prepared with a wettable powder of the active substance (with 160 ppm of active ingredient) and subsequently cultured further in a controlled-environment cabinet at 17° C., 70-80% relative atmospheric humidity and with a photoperiod of 16 hours. After 6 days, the test plants are infected by spraying the undersides of the leaves with zoosporangia of Plasmopara viticola, suspended in distilled water (approx. 300,000 sporangia/ml). The grapevine plants are then incubated as follows: 1 day at 22° C. and under dew-point conditions in the dark and subsequently 4 days in the greenhouse. To induce fructification of Plasmopara viticola, the grapevines are transferred to a controlled-environment cabinet with dew-point conditions at 22° C. on day 5 after the infection.
The tests are carried out in each case on day 6 after the infection by determining the leaf area infected with Plasmopara viticola as a percentage compared with the infected, untreated control.

| SMILES | pest or weed control at 160 ppm (Erysiphe graminis) [%] | pest or weed control at 160 ppm (Puccinia coronata) [%] | melting point [°C] | pest or weed control at 50 ppm (Alternaria brassicae) [%] | pest or weed control at 50 ppm (Venturia inaequalis) [%] | pest or weed control at 160 ppm (Cercospora arachidicola) [%] | pest or weed control at 160 ppm (Plasmopara viticola) [%] |
| --- | --- | --- | --- | --- | --- | --- | --- |
| CO/N=C(\C(=O)OC)c1ccccc1CON=C(C)C(=O)c1ccc(F)cc1 [Compound 128] | > 75 | > 75 |  |  |  |  |  |
| CO/N=C(\C(=O)OC)c1ccccc1CON=C(C)c1cc(C(F)(F)F)cc(C(F)(F)F)c1 [Compound 33] | > 75 |  | 76 to 78 | > 75 | > 75 | > 75 |  |
| CO/N=C(\C(=O)OC)c1ccccc1CON=C(C)c1cccc(Br)c1 [Compound 22] |  |  |  | > 75 | > 75 | > 75 | > 75 |
| CO/N=C(\C(=O)OC)c1ccccc1CON=C(C)c1cccc(C(F)(F)F)c1 [Compound 12] |  | > 75 |  | > 75 | > 75 | > 75 | > 75 |
| CO/N=C(\C(=O)OC)c1ccccc1CON=C(C)c1ccco1 |  |  | 95 to 97 |  |  |  |  |
| CO/N=C(\C(=O)OC)c1ccccc1CON=C(c1ccccc1)C(C)C [Compound 29] | > 75 |  |  | > 75 | > 75 |  | > 75 |
| CO/N=C(\C(=O)OC)c1ccccc1CON=C(C)c1ccc(F)c(C(F)(F)F)c1 [Compound 90] |  | > 75 |  |  |  | > 75 |  |
| CO/N=C(\C(=O)OC)c1ccccc1CON=C(C)c1ccc(Cl)cc1 [Compound 17] |  | > 75 |  | > 75 | > 75 | > 75 | > 75 |
| CO/N=C(\C(=O)OC)c1ccccc1CON=C(C)Cc1ccc(Cl)c(C(F)(F)F)c1 [Compound 133] |  | > 75 |  |  |  | > 75 |  |
| CO/N=C(\C(=O)OC)c1ccccc1CON=C(C)c1cccc(Cl)c1 [Compound 135] | > 75 |  |  |  | > 75 |  | > 75 |
| CO/N=C(\C(=O)OC)c1ccccc1CON=C(C)c1ccccn1 [Compound 15] | > 75 |  | 82 to 84 |  | > 75 |  |  |
| CO/N=C(\C(=O)OC)c1ccccc1CON=C(C)C(=O)c1cccc(C(F)(F)F)c1 [Compound 131] |  | > 75 |  |  | > 75 |  |  |
| CO/N=C(\C(=O)OC)c1ccccc1CON=C(c1ccc(C)cc1)C(F)(F)F [Compound 31] | > 75 |  |  | > 75 | > 75 |  | > 75 |
| CO/N=C(\C(=O)OC)c1ccccc1CON=C(c1cccc(C(F)(F)F)c1)C1CC1 [Compound 148] |  | > 75 |  |  |  | > 75 |  |
| CO/N=C(\C(=O)OC)c1ccccc1CON=C(c1cccc(Br)c1)C(F)(F)F [Compound 30] |  |  |  | > 75 | > 75 | > 75 | > 75 |
| CO/N=C(\C(=O)OC)c1ccccc1CON=C(C)c1ccc2c(c1)OCO2 [Compound 38] |  |  |  | > 75 | > 75 | > 75 | > 75 |
| CO/N=C(\C(=O)OC)c1ccccc1CON=C(C)c1cccc(OC(F)(F)F)c1 [Compound 138] |  | > 75 |  | > 75 |  | > 75 | > 75 |
| CO/N=C(\C(=O)OC)c1ccccc1CON=C(C)c1ccc(OC(F)F)cc1 [Compound 78] |  | > 75 |  |  | > 75 |  |  |
| CCC(=NOCc1ccccc1/C(=N/OC)C(=O)OC)c1ccc2ccccc2c1 [Compound 120] | > 75 |  |  |  |  |  | > 75 |
| CO/N=C(\C(=O)OC)c1ccccc1CON=C(C)c1cc2ccccc2o1 [Compound 32] |  |  | 110 to 112 | > 75 | > 75 | > 75 | > 75 |
| CO/N=C(\C(=O)OC)c1ccccc1CON=C(C)Cc1cccc(C(F)(F)F)c1 [Compound 24] | > 75 |  |  | > 75 | > 75 | > 75 | > 75 |
| CO/N=C(\C(=O)OC)c1ccccc1CON=C(C)c1ccc(F)cc1 [Compound 34] | > 75 |  | 89 to 90 | > 75 | > 75 | > 75 |  |

Reference: patent US6355634B1, “Aromatic compounds” (Bayer Aktiengesellschaft, priority 1990, dated 2002)
